According to paper PMC5962729 (Frontiers in Pharmacology, 2018):

Assays:
[1] = test system: MRP2; experiment: Expression level of MRP2 in rat liver by UHPLC-MS/MS; type: in vivo
Procedure: Male Sprague Dawley rats (230 ± 20 g, 6–8 weeks of age) were purchased from B&K Laboratory Animal, Corp. Ltd. (Shanghai, China) and fed in the Laboratory Animal Center of Shanghai University of Traditional Chinese Medicine. All rats were allowed to acclimatize for 3 days before experimentation. The rats were randomly divided into six groups (n = 5 for each group). […] The rats in groups 4, 5, and 6 were intragastrically administered YCHD every 24 h for 10 consecutive days. The rats in group 3 were orally administered UDCA at a dose of 100 mg/kg every 24 h for 10 consecutive days, which is well-documented to treat induced liver injury and cholestasis ([Chen et al., 2016]; [Cao et al., 2017]). Moreover, groups 1 and 2 were intragastrically treated with physiological saline (0.9%) at a dose of 1 mL/100 g. […] At the end of the experiment, all rats were euthanized by CO2 inhalation. The serum samples were stored at -70°C until analysis, and liver samples were isolated and stored at -70°C for further analysis, whereas the central part of the right large lobe of the liver was used for histological examination. […]
Total membrane protein was isolated (in triplicate) from liver tissue according to the Native Membrane Protein Extraction Kit protocol. Subsequently, protein concentrations were determined by applying the BCA Protein Assay Kit. […]

[2] = test system: ANIT-induced cholestatic liver injury; experiment: Serum biochemistry (ALT, AST, TBIL, DBIL, TBA) in ANIT-induced cholestatic liver injury; type: in vivo, rat
Procedure: (§1) Ltd. (Shanghai, China) and fed in the Laboratory Animal Center of Shanghai University of Traditional Chinese Medicine. […] The rats were randomly divided into six groups (n = 5 for each group). […] [Cao et al., 2017]). […] Before and 24 h after modeling, retro-orbital blood samples were collected in a coagulation tube, and they were then centrifuged at 4°C for 10 min (4000 rpm) to obtain the serum for the assay of ALT, AST, TBIL, DBIL, and TBA. At the end of the experiment, all rats were euthanized by CO2 inhalation. The serum samples were stored at -70°C until analysis, and liver samples were isolated and stored at -70°C for further analysis, whereas the central part of the right large lobe of the liver was used for histological examination.  FIGURE 2 The scheme of the animal experimental design. […] UDCA, positive control group treated with ursodeoxycholic acid (UDCA) (100 mg/kg, […].); […] A closed IV catheter system (Becton Dickinson, United States) was applied to cannulate the bile duct, and the bile specimens were collected into tubes at 2 h intervals for 6 h. The collected serum samples were maintained at room temperature to dissolve. The serum levels of ALT, AST, TBIL, DBIL, and TBA were then determined using a chemistry analyzer system (HITACHI 7080, Japan).

[3] = test system: ANIT-induced intrahepatic cholestasis; experiment: Bile flow rate in ANIT-induced cholestatic rats; type: in vivo, rat; conditions: UDCA 100 mg/kg i.g. + ANIT 50 mg/kg; over 360 min at 48 h after ANIT; not significant vs model
Procedure: as §1

[4] = UDCA 100 mg/kg i.g. daily 10 days, ANIT 50 mg/kg on day 8, serum

C[C@H](CCC(=O)O)[C@H]1CC[C@H]2[C@@H]3[C@@H](O)C[C@@H]4C[C@H](O)CC[C@]4(C)[C@H]3CC[C@]12C [UDCA, Ursodeoxycholic acid]
Mrp2 expression level in rat liver ([1]; UDCA group, ANIT-treated rats, mean ± S.D.): 2.21±0.87 fmol/μg protein | MRP2 expression upregulated, fold ([1]; UDCA-treated cholestatic rats, liver, not statistically significant): 1.5 fold | ALT [2, 4]: 400.6±200.0 IU/L | AST [2, 4]: 611.8±257.2 IU/L | DBIL [2, 4]: 21.2 ± 9.0 µmol/L | TBA [2, 4]: 428.1 ± 55.9 µmol/L | TBIL [2, 4]: 28.2 ± 19.0 µmol/L | serum TBA decreased to (printed), compared with the control group (printed) ([2]; UDCA 100 mg/kg, ANIT-treated rats, p < 0.001): 30.9% | serum DBIL decreased to (printed), compared with the control group (printed) ([2]; UDCA 100 mg/kg, ANIT-treated rats, p < 0.01): 40.9% | bile flow rate [3]: 0.29 ± 0.12 μL/min⋅100 g B.W.
